For assay [1], the system named is Bacillus subtilis subsp. subtilis str. 168. Nature of the assay: Copper chelating activity in Bacillus subtilis 168 assessed as reduction in cytochrome c oxidase activity by measuring increase in ROS level at 10 uM measured over 40 mins by H2DCFDA staining based fluorescence method relative to control.
Assay [2] deals with Bacillus subtilis. Nature of the assay: Antibacterial activity against Bacillus subtilis 168 at 10 uM after 12 hrs relative to control. It counts as functional.
The next assay addresses Mushroom tyrosinase (Agaricus bisporus, UniProt O42713+Q00024+C7FF04+C7FF05). Description: Inhibition of mushroom tyrosinase using L-DOPA as substrate preincubated for 10 mins followed by substrate addition and measured after 15 mins by spectrophotometric method.
Assay [3] relates to Bacillus subtilis. Nature of the assay: microbe, parasite or virus in culture. The following applies: subsp. subtilis str. 168, 12 h.
Description: Antibacterial activity against Bacillus subtilis 168 after 12 hrs
Assay [4] concerns Bacillus subtilis subsp. subtilis str. 168. Description: Copper chelating activity in Bacillus subtilis 168 assessed as reduction in cytochrome c oxidase activity by measuring decrease in intracellular ATP level at 10 uM incubated for 15 to 90 mins by bioluminescence method relative to control. It counts as cell-based. On the set-up: scale not given: the % may be the effect or the level left.

The subject of assay [5] is Bacillus subtilis. Description: Antibacterial activity against Bacillus subtilis 168 assessed as inhibition rate at 100 uM after 12 hrs relative to control. It counts as functional. To be noted: subsp. subtilis str. 168, 12 h.
Assay [6] relates to Bacillus subtilis. Nature of the assay: Antibacterial activity against Bacillus subtilis 168 in presence of CuCl2 by paper disk assay. It counts as functional, organism-based. To be noted: subsp. subtilis str. 168.
Assay [7] has as its system Bacillus subtilis. Nature of the assay: Antibacterial activity against Bacillus subtilis 168 in presence of Fe2+ by paper disk assay. The following applies: subsp. subtilis str. 168. It counts as functional, organism-based.
Assay [8] deals with Bacillus subtilis. Nature of the assay: Antibacterial activity against Bacillus subtilis 168 in presence of Fe3+ by paper disk assay. Format: functional, organism-based. The following applies: subsp. subtilis str. 168.
In assay [9] the test system is Bacillus subtilis subsp. subtilis str. 168. Nature of the assay: Copper chelating activity in Bacillus subtilis 168 assessed as reduction in cellular copper content at 100 uM incubated for 1 hr by ICP-MS analysis relative to control. On the set-up: scale not given: the % may be the effect or the level left.
Another assay has as its system Enterococcus faecalis. Description: Antibacterial activity against Enterococcus faecalis ATCC 29212 at 10 uM after 12 hrs relative to control. Format: functional.
The subject of the next assay is Staphylococcus aureus. Description: Antibacterial activity against Staphylococcus aureus ATCC 43300 at 10 uM after 12 hrs relative to control. It counts as functional.
The test system of the next assay is Acinetobacter baumannii. Nature of the assay: Antibacterial activity against Acinetobacter baumannii ATCC 19606 at 10 uM after 12 hrs relative to control. It counts as functional, ATCC 19606 = CIP 70.34 = JCM 6841.
Another assay deals with Escherichia coli. Description: Antibacterial activity against Escherichia coli BL21 at 10 uM after 12 hrs relative to control. Format: functional.
For another assay, the system named is Klebsiella pneumoniae. Description: Antibacterial activity against Klebsiella pneumoniae CMCC 46117 at 10 uM after 12 hrs relative to control. Format: functional.
A further assay has as its system Pseudomonas aeruginosa. Nature of the assay: Antibacterial activity against Pseudomonas aeruginosa ATCC 27853 at 10 uM after 12 hrs relative to control. Format: functional.
Assay [10] relates to Acinetobacter baumannii ATCC 19606 = CIP 70.34 = JCM 6841. Nature of the assay: Copper chelating activity in Acinetobacter baumannii ATCC 19606 assessed as increase in ROS level at 10 uM measured over 40 mins by H2DCFDA staining based fluorescence method.
[11] abbreviates: Bacillus subtilis subsp. subtilis str. 168.

The IC50 is the midpoint of a concentration-inhibition curve. By inhibition is commonly meant the change of the read-out against control, counted positive when it falls.

Calls of active or inactive are those of the source. The rule behind the calls is not given here.

With `C[C@@H](C#N)CC(=O)NCCCC[C@@H](CO)NC(=O)C[C@@H](C)C#N`, the result (in [1]; in the assay with Bacillus subtilis [2] (setting [11])) was Active. The IC50 at Mushroom tyrosinase is 89.6 µM.
On to `CC(=O)OC[C@H](CCCCNC(=O)C[C@@H](C)NC=O)NC(=O)C[C@@H](C)NC=O`, for which the result (in [1]; with Bacillus subtilis [2] (setting [11])) was inactive.
`COc1cc(Cc2cnc(N)nc2N)cc(OC)c1OC` [TRIMETHOPRIM] displayed an IC50 in the assay on Bacillus subtilis [3] of 0.3 µM.
For the compound `C[C@H](CC(=O)NC[C@@H]1CC[C@H](NC(=O)C[C@@H](C)NC=O)C(O)O1)NC=O` (stereo partly specified), the outcome (in assay [1]; with Bacillus subtilis [2] (setting [11])) was inactive.
As for `CC(C)=CCC(=O)NC[C@@H]1CC[C@H](NC(=O)C[C@@H](C)C#N)C(O)O1` (stereo partly specified), the result (in assay [1]; with Bacillus subtilis [2] (setting [11])) was inactive.
Take `C[C@H](CC(=O)NCCCC[C@@H](CO)NC(=O)C[C@@H](C)NC=O)NC=O`: the outcome (in assay [1]; in the assay on Bacillus subtilis [2] (setting [11])) was inactive.
`CC(=O)OC[C@H](CCCCNC(=O)C[C@@H](C)C#N)NC(=O)C[C@@H](C)C#N`: the result (in assay [1]; in the assay on Bacillus subtilis [2] (setting [11])) was Active. The compound also displayed an IC50 against Mushroom tyrosinase of 89.6 µM.
Consider `C[C@H](CC(=O)NCCCC[C@@H](CO)NC(=O)C[C@@H](C)C#N)NC=O`, for which the outcome (in [1]; in the assay with Bacillus subtilis [2] (setting [11])) was inactive.
With `C[C@H](CC(=O)N[C@H](CO)CCCCNC(=O)C[C@@H](C)C#N)NC=O`, the result (in [1]; in the assay with Bacillus subtilis [2] (setting [11])) was inactive.
For `CC(C)CC(=O)NC[C@@H]1CC[C@H](NC(=O)CC(C)C)C(O)O1` (stereo partly specified), the result (in assay [1]; in the assay on Bacillus subtilis [2] (setting [11])) was inactive.
In the case of `CC(C#N)CC(=O)NC[C@@H]1CC[C@H](NC(=O)C[C@@H](C)C#N)C(O)O1` (stereo partly specified), the Activity was 20% in assay [4]; 24% in assay [9]; 50% in the assay with Bacillus subtilis [2]; 20 - 30% with Enterococcus faecalis; 20 - 30% with Staphylococcus aureus; 57% with Acinetobacter baumannii. In addition, the Activity in the assay on Escherichia coli, in the assay with Klebsiella pneumoniae and in the assay with Pseudomonas aeruginosa was 20 - 30% in each case. In the assay on Bacillus subtilis [5], the inhibition at 100 µM is 56 to 60%. Besides, in the assay on Bacillus subtilis [6], the result was inactive. Besides, the outcome (in the assay on Bacillus subtilis [7]; in the assay with Bacillus subtilis [8]; in assay [10]) was Active. In assay [1], the fold change (FC) amounted to 9. Further, the IC50 against Mushroom tyrosinase came to 89.6 µM.
As to `C[C@H](CC(=O)N[C@H]1CC[C@@H](CNC(=O)C[C@@H](C)C#N)OC1O)NC=O` (stereo partly specified), the result (in [1]; with Bacillus subtilis [2] (setting [11])) was inactive.
For the compound `CC(C)CCC(=O)NC[C@@H]1CC[C@H](NC(=O)C[C@@H](C)C#N)C(O)O1` (stereo partly specified), the result (in assay [1]; with Bacillus subtilis [2] (setting [11])) was inactive.

(Values after ChEMBL document CHEMBL4616656, “Diisonitrile-Mediated Reactive Oxygen Species Accumulation Leads to Bacterial Growth Inhibition” (J Nat Prod, 2020).)
